According to patent US8314143B2, “Synthetic flavonoids and pharmaceutical compositions and therapeutic methods of treatment of HIV infection and other pathologies” (Florida A&M University, priority 2006, dated 2012):
Values joined by “and” are separate entries in the source; they are usually repeats but may differ in a detail not shown here. Equal values may be shown once.

Legend:
Assay type in all cases: cell-based
H-9 cells = assay: Cytoxicity on H-9 cells (drug inhibition, cell count); settings: for H-9 Mean (drug inhibition): Table 4 summary; for % Inhibition Mean / Cells (×10^4) Mean / % Inhibition / Cells (×10^4): Exp. Dec. 05 to Dec. 09, 2005; for % Inhibition / Cells (×10^4): single replicates
Excerpt: (§1) The purified and identified analogs were subjected to in vitro biological testing. […] These three congeners were further evaluated in H9 and PC3 cells. AZT was employed as a positive control in all of these experiments.

PC-3 cells = assay: Cytoxicity on PC-3 cells (drug inhibition, cell count); settings: for % Inhibition Mean / Cells (×10^4) Mean / % Inhibition / Cells (×10^4): Exp. Nov. 11 to Nov. 17, 2005; for % Inhibition / Cells (×10^4): single replicates
Excerpt: The purified and identified analogs were subjected to in vitro biological testing.

MCF-7 cells = assay: Cytoxicity on MCF-7 cells (drug inhibition, cell count); design: Drug Inhibition on MCF-7 Cells / MCF-7 Mean (drug inhibition) / Drug inhibition on MCF-7 Cells Mean: unit not given here; settings: MCF-7 cells; for MCF-7 Mean (drug inhibition): Table 13 summary part; for Drug inhibition on MCF-7 Cells Mean: Table 14 summary part
Excerpt: as §1

[1] = 1 μg/ml, mean, Exp. Nov. 14 to Nov. 18, 2005
[2] = 1 μg/ml, mean, Exp. Sep. 08 to Sep. 12, 2005
[3] = 1 μg/ml, mean, Exp. Sep. 12 to Sep. 16, 2005
[4] = 1 μg/ml, mean, Exp. Sep. 26 to Sep. 30, 2005
[5] = 1 μg/ml, single replicates, Exp. Nov. 14 to Nov. 18, 2005
[6] = 1 μg/ml, single replicates, Exp. Sep. 08 to Sep. 12, 2005
[7] = 1 μg/ml, single replicates, Exp. Sep. 12 to Sep. 16, 2005
[8] = 1 μg/ml, single replicates, Exp. Sep. 26 to Sep. 30, 2005
[9] = 5 μg/ml, mean, Exp. Nov. 14 to Nov. 18, 2005
[10] = 5 μg/ml, mean, Exp. Sep. 08 to Sep. 12, 2005
[11] = 5 μg/ml, mean, Exp. Sep. 12 to Sep. 16, 2005
[12] = 5 μg/ml, mean, Exp. Sep. 26 to Sep. 30, 2005
[13] = 5 μg/ml, single replicates, Exp. Nov. 14 to Nov. 18, 2005
[14] = 5 μg/ml, single replicates, Exp. Sep. 08 to Sep. 12, 2005
[15] = 5 μg/ml, single replicates, Exp. Sep. 12 to Sep. 16, 2005
[16] = 5 μg/ml, single replicates, Exp. Sep. 26 to Sep. 30, 2005
[17] = 10 μg/ml, mean, Exp. Nov. 14 to Nov. 18, 2005
[18] = 10 μg/ml, mean, Exp. Sep. 08 to Sep. 12, 2005
[19] = 10 μg/ml, mean, Exp. Sep. 12 to Sep. 16, 2005
[20] = 10 μg/ml, mean, Exp. Sep. 26 to Sep. 30, 2005
[21] = 10 μg/ml, single replicates, Exp. Nov. 14 to Nov. 18, 2005
[22] = 10 μg/ml, single replicates, Exp. Sep. 08 to Sep. 12, 2005
[23] = 10 μg/ml, single replicates, Exp. Sep. 12 to Sep. 16, 2005
[24] = 10 μg/ml, single replicates, Exp. Sep. 26 to Sep. 30, 2005

## Cc1cn([C@H]2C[C@H](N=[N+]=[N-])[C@@H](CO)O2)c(=O)[nH]c1=O [AZT, reference compound]
H-9 cells; 1 μg/ml
  H-9 Mean (drug inhibition): 18.74
  % Inhibition Mean: 18.74%
  Cells (×10^4) Mean: 40.83 ×10^4
  % Inhibition: 17.91% and 25.37% and 12.94%
  Cells (×10^4): 41.3 ×10^4 and 37.5 ×10^4 and 43.8 ×10^4
H-9 cells; 5 μg/ml
  H-9 Mean (drug inhibition): 38.47
  % Inhibition Mean: 38.47%
  Cells (×10^4) Mean: 30.92 ×10^4
  % Inhibition: 39.30% and 40.30% and 35.82%
  Cells (×10^4): 30.5 ×10^4 and 30.0 ×10^4 and 32.3 ×10^4
H-9 cells; 10 μg/ml
  H-9 Mean (drug inhibition): 49.75
  % Inhibition Mean: 49.75%
  Cells (×10^4) Mean: 25.25 ×10^4
  % Inhibition: 48.26% and 50.25% and 50.75%
  Cells (×10^4): 26.0 ×10^4 and 25.0 ×10^4 and 24.8 ×10^4
PC-3 cells; 1 μg/ml, Table 7
  Drug Inhibition on PC-3 cells: 17.27
PC-3 cells; 1 μg/ml, Table 10
  Drug Inhibition on PC-3 cells: 13.69
PC-3 cells; 1 μg/ml
  % Inhibition Mean: 13.69%
  Cells (×10^4) Mean: 84.58 ×10^4
  % Inhibition: 14.29% and 12.76% and 14.03%
  Cells (×10^4): 84.0 ×10^4 and 85.5 ×10^4 and 84.3 ×10^4
PC-3 cells; 5 μg/ml, Table 7
  Drug Inhibition on PC-3 cells: 43.23
PC-3 cells; 5 μg/ml
  Cells (×10^4) Mean: 17.33 ×10^4
  Cells (×10^4): 70.5 ×10^4 and 72.3 ×10^4 and 71.3 ×10^4
PC-3 cells; 10 μg/ml, Table 7
  Drug Inhibition on PC-3 cells: 59.67
PC-3 cells; 10 μg/ml, Table 10
  Drug Inhibition on PC-3 cells: 37.16
PC-3 cells; 10 μg/ml
  % Inhibition Mean: 37.16%
  Cells (×10^4) Mean: 61.58 ×10^4
  % Inhibition: 37.24% and 37.50% and 36.73%
  Cells (×10^4): 61.5 ×10^4 and 61.3 ×10^4 and 62.0 ×10^4
MCF-7 cells; 1 μg/ml, Table 8 summary
  Drug Inhibition on MCF-7 Cells: 6.92
MCF-7 cells; 1 μg/ml, Table 12 summary
  Drug Inhibition on MCF-7 Cells: 26.55
MCF-7 cells; 1 μg/ml
  MCF-7 Mean (drug inhibition): 25.77
  Drug inhibition on MCF-7 Cells Mean: 21.53
MCF-7 cells; [1]
  % Inhibition Mean: 6.92%
  Cells (×10^4) Mean: 53.83 ×10^4
MCF-7 cells; [2]
  % Inhibition Mean: 25.77%
  Cells (×10^4) Mean: 52.33 ×10^4
MCF-7 cells; [3]
  % Inhibition Mean: 21.53%
  Cells (x10^4) Mean: 45.25 x10^4
MCF-7 cells; [4]
  % Inhibition Mean: 26.55%
  Cells (×10^4) Mean: 36.42 ×10^4
MCF-7 cells; [5]
  % Inhibition: 8.36% and 4.47% and 7.93%
  Cells (×10^4): 53.0 ×10^4 and 55.3 ×10^4 and 53.3 ×10^4
MCF-7 cells; [6]
  % Inhibition: 27.66% and 23.76% and 25.89%
  Cells (×10^4): 51.0 ×10^4 and 53.8 ×10^4 and 52.3 ×10^4
MCF-7 cells; [7]
  % Inhibition: 22.83% and 20.23% and 21.53%
  Cells (x10^4): 44.5 x10^4 and 46.0 x10^4 and 45.3 x10^4
MCF-7 cells; [8]
  % Inhibition: 28.40% and 25.88% and 25.38%
  Cells (×10^4): 35.5 ×10^4 and 36.8 ×10^4 and 37.0 ×10^4
MCF-7 cells; 5 μg/ml, Table 8 summary
  Drug Inhibition on MCF-7 Cells: 38.62
MCF-7 cells; 5 μg/ml, Table 12 summary
  Drug Inhibition on MCF-7 Cells: 46.86
MCF-7 cells; 5 μg/ml
  MCF-7 Mean (drug inhibition): 39.36
  Drug inhibition on MCF-7 Cells Mean: 50.43
MCF-7 cells; [9]
  % Inhibition Mean: 38.62%
  Cells (×10^4) Mean: 35.50 ×10^4
MCF-7 cells; [10]
  % Inhibition Mean: 39.36%
  Cells (×10^4) Mean: 42.75 ×10^4
MCF-7 cells; [11]
  % Inhibition Mean: 50.43%
  Cells (x10^4) Mean: 28.58 x10^4
MCF-7 cells; [12]
  % Inhibition Mean: 46.86%
  Cells (×10^4) Mean: 26.35 ×10^4
MCF-7 cells; [13]
  % Inhibition: 39.91% and 40.35% and 35.59%
  Cells (×10^4): 34.8 ×10^4 and 34.5 ×10^4 and 37.3 ×10^4
MCF-7 cells; [14]
  % Inhibition: 40.07% and 37.94%
  Cells (×10^4): 42.3 ×10^4 (2×) and 43.8 ×10^4
MCF-7 cells; [15]
  % Inhibition: 47.98% and 51.88% and 51.45%
  Cells (x10^4): 30.0 x10^4 and 27.8 x10^4 and 28.0 x10^4
MCF-7 cells; [16]
  % Inhibition: 49.98% and 45.04% and 45.55%
  Cells (×10^4): 24.8 ×10^4 and 27.3 ×10^4 and 27.0 ×10^4
MCF-7 cells; 10 μg/ml, Table 8 summary
  Drug Inhibition on MCF-7 Cells: 61.1
MCF-7 cells; 10 μg/ml, Table 12 summary
  Drug Inhibition on MCF-7 Cells: 65.21
MCF-7 cells; 10 μg/ml
  MCF-7 Mean (drug inhibition): 57.45
  Drug inhibition on MCF-7 Cells Mean: 65.03
MCF-7 cells; [17]
  % Inhibition Mean: 61.10%
  Cells (×10^4) Mean: 22.50 ×10^4
MCF-7 cells; [18]
  % Inhibition Mean: 57.45%
  Cells (×10^4) Mean: 30.00 ×10^4
MCF-7 cells; [19]
  % Inhibition Mean: 65.03%
  Cells (x10^4) Mean: 20.17 x10^4
MCF-7 cells; [20]
  % Inhibition Mean: 65.21%
  Cells (×10^4) Mean: 17.25 ×10^4
MCF-7 cells; [21]
  % Inhibition: 61.53% and 60.23%
  Cells (×10^4): 22.3 ×10^4 (2×) and 23.0 ×10^4
MCF-7 cells; [22]
  % Inhibition: 57.45%
  Cells (×10^4): 30.0 ×10^4
MCF-7 cells; [23]
  % Inhibition: 69.65% and 62.72%
  Cells (x10^4): 17.5 x10^4 and 21.5 x10^4 (2×)
MCF-7 cells; [24]
  % Inhibition: 65.21% and 63.19% and 67.23%
  Cells (×10^4): 17.3 ×10^4 and 18.3 ×10^4 and 16.3 ×10^4
MCF-7 cells; drug 1 μg/ml, mean of replicates
  Cells (×10^4) Mean: 43.08 ×10^4
MCF-7 cells; drug 1 μg/ml, mean of replicates, vs 2% DMSO
  % Inhibition Mean: 15.38%
MCF-7 cells; drug 1 μg/ml, single replicate count
  Cells (×10^4): 43.3 ×10^4 (2×) and 42.8 ×10^4
MCF-7 cells; drug 1 μg/ml, single replicate, vs 2% DMSO
  % Inhibition: 15.06% and 16.04%
MCF-7 cells; drug 5 μg/ml, mean of replicates
  Cells (×10^4) Mean: 32.08 ×10^4
MCF-7 cells; drug 5 μg/ml, mean of replicates, vs 2% DMSO
  % Inhibition Mean: 36.99%
MCF-7 cells; drug 5 μg/ml, single replicate count
  Cells (×10^4): 31.5 ×10^4 and 32.3 ×10^4 and 32.5 ×10^4
MCF-7 cells; drug 5 μg/ml, single replicate, vs 2% DMSO
  % Inhibition: 38.13% and 36.66% and 36.17%
MCF-7 cells; drug 10 μg/ml, mean of replicates
  Cells (×10^4) Mean: 24.08 ×10^4
MCF-7 cells; drug 10 μg/ml, mean of replicates, vs 2% DMSO
  % Inhibition Mean: 52.7%
MCF-7 cells; drug 10 μg/ml, single replicate count
  Cells (×10^4): 22.0 ×10^4 and 25.5 ×10^4 and 24.8 ×10^4
MCF-7 cells; drug 10 μg/ml, single replicate, vs 2% DMSO
  % Inhibition: 56.79% and 49.92% and 51.39%
